The numbers were not newly measured in JP2011132186A, “ホルモン不応性前立腺癌治療法及び治療効果予測方法” (University of Tokushima NUC, priority 2009, dated 2011), which cites them from elsewhere.

The data set relates to hormone-refractory prostate cancer [ホルモン不応性前立腺癌]. The settings on record: large phase III comparative trial in Europe and USA.

For `O=C1c2c(O)ccc(O)c2C(=O)c2c(NCCNCCO)ccc(NCCNCCO)c21` [ミトキサントロン], the “median survival time (OS)” value is 16.5 months.

Turning to `CC(=O)O[C@@]12CO[C@@H]1C[C@H](O)[C@@]1(C)C(=O)[C@H](O)C3=C(C)[C@@H](OC(=O)[C@H](O)[C@@H](NC(=O)OC(C)(C)C)c4ccccc4)C[C@@](O)([C@@H](OC(=O)c4ccccc4)[C@H]21)C3(C)C` [ドセタキセル], the “median survival time (OS)” value is 18.9 months.
